Among the data in patent US20260193294A1, “POLYPEPTIDE INHIBITOR, AND PREPARATION METHOD THEREFOR AND USE THEREOF” (SHANGHAI HANSOH BIOMEDICAL CO., LTD., priority 2022, published 2026) are IC50 values, retold here.

The target in assay [1] is T1, IL23R (Homo sapiens, UniProt Q5VWK5).
T1 construct: Tag2 (identity not disclosed); purchased PerkinElmer 64BDPIL23PEH
T1 sequence (Q5VWK5 24-355 limits assumed): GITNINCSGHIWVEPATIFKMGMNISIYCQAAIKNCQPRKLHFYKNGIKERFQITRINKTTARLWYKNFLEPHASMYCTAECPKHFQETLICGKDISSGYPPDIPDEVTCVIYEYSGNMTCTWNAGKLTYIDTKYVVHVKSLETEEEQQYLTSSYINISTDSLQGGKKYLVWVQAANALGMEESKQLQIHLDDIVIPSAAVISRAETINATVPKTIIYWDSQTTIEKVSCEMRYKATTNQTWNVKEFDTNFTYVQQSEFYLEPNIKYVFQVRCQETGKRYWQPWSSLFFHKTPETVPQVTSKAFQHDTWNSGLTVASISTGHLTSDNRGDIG
Nature of the assay: Competing with IL23 for binding to IL23R (HTRF, IL23/IL23R binding assay kit). The settings on record: 2 hours incubation at room temperature. How it is done: (§1) The compounds of the present disclosure were screened in IL23/IL23R BINDING ASSAY KITS (PerkinElmer Cat #64BDPIL23PEH). The screening of the compounds of the present disclosure was carried out by using a multi-well plate (suitable for HTRF determination). Generally, 2 μl of several compounds of the present disclosure and STANDARD SOLUTIONS in KIT were first respectively added to the wells of the multi-well plate. 4 μl of Tag1-IL23, 4 μl of Tag2-IL23R, and 10 μL of pre-mixed Anti-Tag1 Eu Cryptate Antibody and Anti-Tag2 d2 reagent were necessarily added to all the wells. The multi-well plate was protected from light by an opaque cover membrane, and the opaque cover membrane was then removed
as §1, with “removed after 2 hours of incubation at room temperature. The signal value was read by an HTRF-compatible detection instrument to detect IC50 value.” for “removed”
(§2) The inhibition rate was calculated as follows: […]
By using log (inhibitor) vs. response—Variable slope (four parameters) in Graphpad, the data of HTRF experiment results were subjected to non-linear regression fitting to fit a curve and obtain the IC50 value.
In general terms: Time-resolved FRET reads energy transfer from a long-lived donor to a nearby acceptor.

Assay [2] has as its system activation of STAT3 phosphorylation by hIL23 in DB cells. Nature of the assay: Blocking the activation of STAT3 phosphorylation by hIL23 in DB cells (p-STAT3 ELISA). It counts as cell-based, Human. The settings on record: DB cells stimulated by rhIL-23 0.5 nM, half an hour; read-out: pStat3 IC50. The method, then:
To determine the inhibitory activity of the compounds of the present disclosure on the activation of STAT3 phosphorylation by hIL23 in DB cells
The compounds produced above were added to DB (ATCC Cat #CRL-2289) cells to inhibit the signal transduction of rhIL-23 cytokine. The screening of compounds was carried out by a multi-well plate (suitable for ELISA assay). Generally, in the presence of some of the above compounds of the present disclosure, 6.25×10^6 cells/ml of DB cells were stimulated by rhIL-23 (0.5 nM, R&D SYSTEMS) in RPMI medium (Invitrogen) containing 10% of FBS, and after half an hour, lysis was carried out on ice using 50 μL of 2×lysis buffer (CST). The content of p-STAT3 in the lysate was determined by PathScan Phospho-Stat3 (Tyr705) Sandwich ELISA Kit (CST Cat #7300C), so as to calculate the activity of the compounds of the present disclosure in blocking rhIL23 signal transduction in DB cells.
as §2
By using log (inhibitor) vs. response—Variable slope (four parameters) in Graphpad, the data of ELISA experiment results were subjected to non-linear regression fitting to fit a curve and obtain the IC50 value.

By IC50 is commonly meant the point on the concentration scale where inhibition reaches its midpoint.

Positions of bridges follow the written chain, without caps; N, C: chain ends. Non-standard residues stand in square brackets, D forms with d. Residues, ends and D or L forms follow the SMILES beside them. Trp(7-Me) = Cc1cccc2c(C[C@H](N)C(=O)O)c[nH]c12; 2Nal = N[C@@H](Cc1ccc2ccccc2c1)C(=O)O; Thp(SO2) = NC1(C(=O)O)CCS(=O)(=O)CC1; AEF = NCCOc1ccc(C[C@H](N)C(=O)O)cc1; Ac6c(4-thia) = NC1(C(=O)O)CCSCC1; 3Pal = N[C@@H](Cc1cccnc1)C(=O)O; Pen = CC(C)(S)[C@H](N)C(=O)O; Sar = CNCC(=O)O

In the case of `CC(=O)NCCCC[C@@H]1NC(=O)[C@H](Cc2c[nH]c3c(C)cccc23)NC(=O)[C@H]([C@@H](C)O)NC(=O)[C@H](CC(N)=O)NC(=O)[C@@H](NC(C)=O)C(C)(C)SSC(C)(C)[C@@H](C(=O)N[C@@H](Cc2ccc(OCCN)cc2)C(=O)N[C@@H](Cc2ccc3ccccc3c2)C(=O)NC2(C(=O)N[C@@H](CCC(=O)O)C(=O)N[C@@H](CC(N)=O)C(=O)N[C@@H](Cc3cccnc3)C(=O)N(C)CCNC(=O)CCCCC[N+](C)(C)C)CCSCC2)NC1=O` [Example 3-19], in assay [1], the IC50 was 1.13 nM.

Turning to `CC(=O)NCCCC[C@@H]1NC(=O)[C@H](Cc2c[nH]c3c(C)cccc23)NC(=O)[C@H]([C@@H](C)O)NC(=O)[C@H](CC(N)=O)NC(=O)[C@@H](NC(C)=O)C(C)(C)SSC(C)(C)[C@@H](C(=O)N[C@@H](Cc2ccc(OCCN)cc2)C(=O)N[C@@H](Cc2ccc3ccccc3c2)C(=O)NC2(C(=O)N[C@@H](CCC(=O)O)C(=O)N[C@@H](CC(N)=O)C(=O)N[C@@H](Cc3cccnc3)C(=O)N(C)CCNC(=O)COCCOCCNC(=O)COCCOCCNC(=O)CC[C@H](NC(=O)CCCCCCCCCCCCCCCCC(=O)O)C(=O)O)CCOCC2)NC1=O` [Example 6], in assay [1], the IC50 was determined as 1.25 nM.

As to `CC(=O)NCCCC[C@@H]1NC(=O)[C@H](Cc2c[nH]c3c(C)cccc23)NC(=O)[C@H]([C@@H](C)O)NC(=O)[C@H](CC(N)=O)NC(=O)[C@@H](NC(C)=O)C(C)(C)SSC(C)(C)[C@@H](C(=O)N[C@@H](Cc2ccc(OCCN)cc2)C(=O)N[C@@H](Cc2ccc3ccccc3c2)C(=O)NC2(C(=O)N[C@@H](CCC(=O)O)C(=O)N[C@@H](CC(N)=O)C(=O)N[C@@H](Cc3cccnc3)C(=O)N(C)CCNC(=O)CCCCC[N+](C)(C)C)CCOCC2)NC1=O` [Example 12], the half-inhibitory concentration (IC50) in assay [1] was 1.14 nM.

Consider `CC(=O)NCCCC[C@@H]1NC(=O)[C@H](Cc2c[nH]c3c(C)cccc23)NC(=O)[C@H]([C@@H](C)O)NC(=O)[C@H](CC(N)=O)NC(=O)[C@@H](NC(C)=O)C(C)(C)SSC(C)(C)[C@@H](C(=O)N[C@@H](Cc2ccc(OCCN)cc2)C(=O)N[C@@H](Cc2ccc3ccccc3c2)C(=O)NC2(C(=O)N[C@@H](CCC(=O)O)C(=O)N[C@@H](CC(N)=O)C(=O)N[C@@H](Cc3cccnc3)C(=O)N(C)CCNC(=O)CCOCCOCC[N+](C)(C)C)CCOCC2)NC1=O` [Example 3], for which the IC50 in assay [1] turned out to be 1.23 nM.

Consider `CC(=O)NCCCC[C@@H]1NC(=O)[C@H](Cc2c[nH]c3c(C)cccc23)NC(=O)[C@H]([C@@H](C)O)NC(=O)[C@H](CC(N)=O)NC(=O)[C@@H](NC(C)=O)C(C)(C)SSC(C)(C)[C@@H](C(=O)N[C@@H](Cc2ccc(OCCN)cc2)C(=O)N[C@@H](Cc2ccc3ccccc3c2)C(=O)NC2(C(=O)N[C@@H](CCC(=O)O)C(=O)N[C@@H](CC(N)=O)C(=O)N[C@@H](Cc3cccnc3)C(=O)N(C)CC(N)=O)CCS(=O)(=O)CC2)NC1=O` [Example 4-14] (Ac-[Pen]NT[Trp(7-Me)]K(Ac)[Pen][AEF][2Nal][Thp(SO2)]EN[3Pal][Sar]-NH2; disulfide 1-6), for which the concentration for half-maximal inhibition (IC50) turned out to be 1.11 nM in assay [1] and 0.0016 nM in assay [2].

Compound `CC(=O)NCCCC[C@@H]1NC(=O)[C@H](Cc2c[nH]c3c(C)cccc23)NC(=O)[C@H]([C@@H](C)O)NC(=O)[C@H](CC(N)=O)NC(=O)[C@@H](NC(C)=O)C(C)(C)SSC(C)(C)[C@@H](C(=O)N[C@@H](Cc2ccc(OCCN)cc2)C(=O)N[C@@H](Cc2ccc3ccccc3c2)C(=O)NC2(C(=O)N[C@@H](CCC(=O)O)C(=O)N[C@@H](CC(N)=O)C(=O)N[C@@H](Cc3cccnc3)C(=O)N(C)CCNC(=O)CCCCC[N+](C)(C)C)CCS(=O)(=O)CC2)NC1=O` [Example 4-19] gave an IC50 in assay [1] of 1.18 nM.

For `CC(=O)NCCCC[C@@H]1NC(=O)[C@H](Cc2c[nH]c3c(C)cccc23)NC(=O)[C@H]([C@@H](C)O)NC(=O)[C@H](CC(N)=O)NC(=O)[C@@H](NC(C)=O)C(C)(C)SSC(C)(C)[C@@H](C(=O)N[C@@H](Cc2ccc(OCCN)cc2)C(=O)N[C@@H](Cc2ccc3ccccc3c2)C(=O)NC2(C(=O)N[C@@H](CCC(=O)O)C(=O)N[C@@H](CC(N)=O)C(=O)N[C@@H](Cc3ccncc3)C(=O)N(C)CC(N)=O)CCC(F)(F)CC2)NC1=O` [Example 1-14], the concentration for half-maximal inhibition (IC50) in assay [1] was 1.14 nM.

With `CCCCCCC(=O)NCCCCCCCC(=O)NCC[N+](C)(C)CCOCCOCCC(=O)NCCN(C)C(=O)[C@H](Cc1cccnc1)NC(=O)[C@H](CC(N)=O)NC(=O)[C@H](CCC(=O)O)NC(=O)C1(NC(=O)[C@H](Cc2ccc3ccccc3c2)NC(=O)[C@H](Cc2ccc(OCCN)cc2)NC(=O)[C@H]2NC(=O)[C@H](CCCCNC(C)=O)NC(=O)[C@H](Cc3c[nH]c4c(C)cccc34)NC(=O)[C@H]([C@@H](C)O)NC(=O)[C@H](CC(N)=O)NC(=O)[C@@H](NC(C)=O)C(C)(C)SSC2(C)C)CCOCC1` [Example 2], the IC50 in assay [1] came out at 0.23 nM; in assay [2] it was 0.01 nM.

As to `CC(=O)NCCCC[C@@H]1NC(=O)[C@H](Cc2c[nH]c3c(C)cccc23)NC(=O)[C@H]([C@@H](C)O)NC(=O)[C@H](CC(N)=O)NC(=O)[C@@H](NC(C)=O)C(C)(C)SSC(C)(C)[C@@H](C(=O)N[C@@H](Cc2ccc(OCCN)cc2)C(=O)N[C@@H](Cc2ccc3ccccc3c2)C(=O)NC2(C(=O)N[C@@H](CCC(=O)O)C(=O)N[C@@H](CC(N)=O)C(=O)N[C@@H](Cc3cccnc3)C(=O)N(C)CC(N)=O)CCSCC2)NC1=O` [Example 3-14] (Ac-[Pen]NT[Trp(7-Me)]K(Ac)[Pen][AEF][2Nal][Ac6c(4-thia)]EN[3Pal][Sar]-NH2; disulfide 1-6), the 50% inhibitory concentration (IC50) in assay [1] worked out at 1.09 nM; in assay [2] it was 0.0014 nM.

In turn, `CC(=O)NCCCC[C@@H]1NC(=O)[C@H](Cc2c[nH]c3c(C)cccc23)NC(=O)[C@H]([C@@H](C)O)NC(=O)[C@H](CC(N)=O)NC(=O)[C@@H](NC(C)=O)C(C)(C)SSC(C)(C)[C@@H](C(=O)N[C@@H](Cc2ccc(OCCN)cc2)C(=O)N[C@@H](Cc2ccc3ccccc3c2)C(=O)NC2(C(=O)N[C@@H](CCC(=O)O)C(=O)N[C@@H](CC(N)=O)C(=O)N[C@@H](Cc3cccnc3)C(=O)N(C)CCNC(=O)CCCCC[N+](C)(C)C)CCC(F)(F)CC2)NC1=O` [Example 1-19] returned an IC50 in assay [1] of 1.35 nM.
